Measurements as given in patent US20130190275A1, “COMBINED THERAPIES OF ANTIPSYCHOTIC DRUGS AND TETRACYCLINES IN THE TREATMENT OF PSYCHIATRIC DISORDERS” (MOR RESEARCH APPLICATIONS LTD., priority 2006, published 2013).

Test system: MK801 treated rats
Assay: Morris Water Maze (MWM) task, MK801 animal model of schizophrenia
Type: in vivo, rat
Method: Morris Water Maze (MWM): The MWM consisted of a water pool (diameter=1.8 m; depth=0.6 m) containing water at 26±1° C. A hidden platform was located 1.5 cm below the water surface. Within the testing room, only distal visuo-spatial cues were available to the rats for location of the submerged platform. A video camera was placed above the center of the pool for tracking the rat, and a video tracking system (Noldus Information Technology b.v., Wageninpen, The Netherlands) with online digital output, directly fed data into a computer and analyzed. Data were analyzed by using an Etho-Vision automated tracking system (Noldus Information Technology).
Fifteen minutes before the behavioral procedures conducted at the fourth day, the subject was injected i.p. with an 0.1 mg/kg dose of MK801 or saline, for a total volume of 1 ml per kg of body weight. Next, the subjects passed the three behavioral procedures, described in the following paragraphs.
The MWM, a hippocampal-dependent visuo-spatial learning task, was used to assess the subjects' spatial learning/memory. The ability of an animal to locate a hidden platform submerged under water by using extra-maze cues from the test environment was examined. The rats were trained in a pool 1.8 m in diameter and 0.6 m high, containing water at 26±1° C. A 10 cm square transparent platform was hidden in a constant position in the pool submerged 1 cm below the water level. Within the testing room only distal visuo-spatial cues were available to the rats for location of the submerged platform.
Rats were given four trials per day, to find the hidden platform (acquisition phase). The escape latency, i.e., the time required by the rat to find and climb onto the platform, was recorded for up to 120 sec. Each rat was allowed to remain on the platform for 30 sec, and was then removed to its home cage.
Morris Water Maze (MWM): Escape latency, the time between placing the rat in the pool until it located the platform, was measured during behavioral testing. The escape latency was analyzed by means of […] repeated measures analysis of variance (ANOVA) with a between-subjects measure of ‘group’ (treatment group) and a within-subjects measure of ‘trail’ (effects amongst groups in the four different trials).
The MWM test was then performed (see FIG. 1 for results). A significant main effect of ‘group’, ‘trail’ and a significant ‘group’×‘trails’ interaction was found in the repeated measured ANOVA for the MWM task [F(5,35)=9.699, p<0.001; F(3,33)=31.551, p<0.001; F(15,91)=1.824, p<0.05; respectively].

CN(C)c1ccc(O)c2c1C[C@H]1C[C@H]3[C@H](N(C)C)C(O)=C(C(N)=O)C(=O)[C@@]3(O)C(O)=C1C2=O [minocycline]
escape latency, impairments induced by MK801 (main procedure: minocycline 35 mg/kg x 3 days, MK801 0.1 mg/kg i.p.): reduce the impairments induced by MK801 | escape latency, trail 4 (minocycline 35 mg/kg before MK801, vs MK801 group, p<0.05): significant difference when compared to the MK801 group | escape latency, improvement compared with haloperidol (minocycline 35 mg/kg+MK801 vs haloperidol 0.4 mg/kg+MK801): somewhat more significant than that caused by haloperidol | dose dependence of effect in the MWM task (minocycline 20, 25, 30, 35 mg/kg before MK801): good dose dependent effect | escape latency (minocycline 20 and 25 mg/kg for three consecutive days before MK801, vs saline and MK801 groups): no significant differences with the MK801 treated rats | escape latency (minocycline 30 and 35 mg/kg for three consecutive days before MK801, vs saline group): did not differ from the saline treated group
